The values that follow come from patent US12134620B2 (ARAXES PHARMA LLC, priority 2018, dated 2024).

The structures appear in SMILES notation.

For this test, the target named is T1, KRAS G12C 1-169, his-tagged protein, GDP-loaded (Homo sapiens, UniProt P01116, G12C).
T1 construct: KRAS G12C 1-169, his-tagged protein, GDP-loaded; His tag
The experiment in a line: Biochemical assay: covalent modification of KRAS G12C, analysed by mass spectrometry (RapidFire/TOF or Q-Exactive). Format: binding. The conditions noted are these: Modification activity, modification percentage from MS peak intensities. As for the experimental part: Test compounds are prepared as 10 mM stock solutions in DMSO (Fisher cat. #BP-231-100). KRAS G12C 1-169, his-tagged protein, GDP-loaded is diluted to 2 μM or 0.5 μM in buffer (20 mM Hepes, 150 mM NaCl, 1 mM MgCl2). Compounds are tested for activity as follows:
Compounds are diluted to 50× final test concentration in DMSO in 96-well storage plates. Compound stock solutions are vortexed before use and observed carefully for any sign of precipitation. Dilutions are as follow: • For 32 μM final compound concentration, compounds are diluted to 1600 μM (3 μL 10 mM compound stock+15.75 μL DMSO and mixed well by pipetting. • For 8 μM final compound concentration, compounds are diluted to 400 μM (2 μL 10 mM compound stock+48 μL DMSO) and mixed well by pipetting. 49 μL of the stock protein solution is added to each well of a 96-well PCR plate (Fisher cat #1423027). 1 μl of the diluted 50× compounds are added to appropriate wells in the PCR plate using 12-channel pipettor. Reactions are mixed carefully and thoroughly by pipetting up/down with a 200 μL multi-channel pipettor. The plate is sealed well with aluminum plate seal, and protein and compound are allowed to react for a desired amount of time. 5 μL of 2% formic acid (Fisher cat #A117) in de-ionized H2O is then added to each well followed by mixing with a pipette to quench the reaction. The plate is then resealed with aluminum seal and stored frozen on dry ice until analyzed as described below.
The above described assays are analyzed by mass spectrometry according to one of the following two procedures:
The MS instrument is set to positive polarity, 2 GHz resolution, and low mass (1700) mode and allowed to equilibrate for 30 minutes. The instrument is then calibrated, switched to acquisition mode and the appropriate method loaded.
After another 30 minute equilibration time, a blank batch (i.e., buffer) is run to ensure equipment is operating properly. The samples are thawed at 37° C. for 10 minutes, briefly centrifuged, and transfer to the bench top. Wells A1 and H12 are spiked with 1 μL 500 μM internal standard peptide, and the plates centrifuged at 2000×g for 5 minutes. The method is then run and masses of each individual well recorded.
The masses (for which integration data is desired) for each well are pasted into the platemap and exported from the analysis. Masses for the internal standards are exported as well. The data at 50 ppm is extracted for the +19 charge state, and identity of well A1 is assigned using the internal standard spike and integrated. Peak data is exported as a TOF list and the above steps are repeated individually, for the +20, +21, +22, +23, +24, and +25 charge states.
The masses and peak intensities of KRAS G12C protein species are measured using a Dionex RSLCnano system (Thermo Scientific) connected to a Q Exactive Plus mass spectrometer (Thermo Scientific).
20 μL of sample is each loaded onto a Aeris™ 3.6 μm WIDEPORE C4 200 Å, LC Column 50×2.1 mm column maintained at 40° C. at a flow rate of 600 μL/min with 80% Solvent A (0.1% formic acid in H2O) and 20% Solvent B (0.1% formic acid in acetonitrile). The liquid chromatography conditions are 20% solvent B for 1 minute, 20% to 60% solvent B for 1.5 minutes, 60% to 90% solvent for 0.5 minute, 90% solvent B for 0.2 minute, 90% to 20% solvent B for 0.2 minute, and then equilibrated for 1.6 minute before the following sample injection. The flow rate is maintained at 600 μL/min throughout the sample analysis.
The mass spectrometer is operated in profile mode at a resolution of 17500, 5 microscans, using 50 msec max injection time and an AGC target of 1×10^6, and a full mass range from 800-1850 m/z is recorded. The intact protein mode is applied for optimal ion transfer and maximum sensitivity. The ionization method is electrospray ionization, which used a spray voltage of 4 kV, sheath gas flow set to 50 AU, auxiliary gas flow set to 10 AU and sweep gas flow set to 1 AU. […]
For `C=CC(=O)N1CC2(CC(=O)N(c3nc(N4CCOCC4)nc(-c4c(O)cccc4F)c3C#N)C2)C1` [Compound I-177, 4-(2-acryloyl-7-oxo-2,6-diazaspiro[3.4]octan-6-yl)-6-(2-fluoro-6-hydroxyphenyl)-2-morpholinopyrimidine-5-carbonitrile], the Binding % result was “+ (+ indicates binding activity greater than 0% and up to 50%)”. For the compound `C=CC(=O)N1CC2(CCN(c3nc(CCN4CCCC4)nc(-c4c(C)ccc5[nH]ncc45)c3C#N)C2)C1` [Compound I-183, 4-(2-acryloyl-2,6-diazaspiro[3.4]octan-6-yl)-6-(5-methyl-1H-indazol-4-yl)-2-(2-(pyrrolidin-1-yl)ethyl)pyrimidine-5-carbonitrile], the Binding % result was “+ (+ indicates binding activity greater than 0% and up to 50%)”. Regarding `C=CC(=O)N1CC2(CCN(c3c(OC[C@@H]4CCCN4C)ncc(-c4c(C)ccc5cnn(C)c45)c3C#N)C2)C1` [Compound I-182, 3-(2-acryloyl-2,6-diazaspiro[3.4]octan-6-yl)-5-(1,6-dimethyl-1H-indazol-7-yl)-2-(((S)-1-methylpyrrolidin-2-yl)methoxy)isonicoti-nonitrile], the Binding % result is “+ (+ indicates binding activity greater than 0% and up to 50%)”. To `C=CC(=O)N1CC2(CCN(c3nc(N4CCC(N5CCN(C)[C@H](C)C5)CC4)nc(-c4c(C)ccc5cnn(C)c45)c3C#N)C2)C1` [Compound I-198, 4-(2-acryloyl-2,6-diazaspiro[3.4]octan-6-yl)-6-(1,6-dimethyl-1H-indazol-7-yl)-2-(4-((R)-3,4-dimethylpiperazin-1-yl)piperidin-1-yl)pyrimidine-5-carbonitrile] belongs “+++ (+++ indicates binding activity greater than 85%)”. As for `C=CC(=O)N1CC2(CCN(c3cc(-c4c(C)ccc5[nH]ncc45)ncn3)C2)C1` [Compound I-229, 1-(6-(6-(5-methyl-1H-indazol-4-yl)pyrimidin-4-yl)-2,6-diazaspiro[3.4]octan-2-yl)prop-2-en-1-one], the Binding % result was “+ (+ indicates binding activity greater than 0% and up to 50%)”.

With `C=CC(=O)N1CC2(CCN(c3nc(OCCCN(C)C)cc(-c4c(C)ccc5[nH]ncc45)n3)C2)C1` [Compound I-146, 1-(6-(4-(3-(dimethylamino)pro-poxy)-6-(5-methyl-1H-indazol-4-yl)pyrimidin-2-yl)-2,6-diazaspiro[3.4]octan-2-yl)prop-2-en-1-one], the Binding % result is “+ (+ indicates binding activity greater than 0% and up to 50%)”.

For the compound `C=CC(=O)N1CC2(CCN(c3ncnc(-c4c(C)ccc5[nH]ncc45)c3CO)C2)C1` [Compound I-251, 1-(6-(5-(hydroxymethyl)-6-(5-methyl-1H-indazol-4-yl)pyrimidin-4-yl)-2,6-diazaspiro[3.4]octan-2-yl)prop-2-en-1-one], the Binding % result is “+ (+ indicates binding activity greater than 0% and up to 50%)”.

On to `C=CC(=O)N1CC2(CCN(c3cnc(OCc4ccccc4)c(-c4c(C)ccc5[nH]ncc45)c3C#N)C2)C1` [Compound I-220, 5-(2-acryloyl-2,6-diazaspiro[3.4]octan-6-yl)-2-(benzyloxy)-3-(5-methyl-1H-indazol-4-yl)isonicotinonitrile], for which the Binding % result is “++ (++ indicates binding activity from 50 to 85%)”. `C=CC(=O)N1CC2(CCN(c3nc(C(N)=O)nc(-c4c(C)ccc5[nH]ncc45)c3C#N)C2)C1` [Compound I-202, 4-(2-acryloyl-2,6-diazaspiro[3.4]octan-6-yl)-5-cyano-6-(5-methyl-1H-indazol-4-yl)pyrimidine-2-carboxamide]: the Binding % result was “+ (+ indicates binding activity greater than 0% and up to 50%)”. With `Cc1ccc2[nH]ncc2c1-c1nc(OC[C@@H]2CCCN2C)nc(N2CCC3(CN(C(=O)/C=C/CN4CCC4)C3)C2)c1C#N` [Compound I-205, 4-(2-((E)-4-(azetidin-1-yl)but-2-enoyl)-2,6-diazaspiro[3.4]octan-6-yl)-6-(5-methyl-1H-indazol-4-yl)-2-(((S)-1-methylpyrrolidin-2-yl)methoxy)pyrimidine-5-carbonitrile] the entry was “+ (+ indicates binding activity greater than 0% and up to 50%)”. Take `C=CC(=O)N1CC2(CCN(c3nc(-n4ccnc4)nc(-c4c(C)ccc5[nH]ncc45)c3C#N)C2)C1` [Compound I-11, 4-(2-acryloyl-2,6-diazaspiro[3.4]octan-6-yl)-2-(1H-imidazol-1-yl)-6-(5-methyl-1H-indazol-4-yl)pyrimidine-5-carbonitrile]: the Binding % result was “+++ (+++ indicates binding activity greater than 85%)”. To `C=CC(=O)N1CC2(CCN(c3cncc(-c4c(O)cccc4F)c3C#N)C2)C1` [Compound I-269, 3-(2-acryloyl-2,6-diazaspiro[3.4]octan-6-yl)-5-(2-fluoro-6-hydroxyphenyl)isoni-cotinonitrile] belongs “+ (+ indicates binding activity greater than 0% and up to 50%)”; to `C=CC(=O)N1CC2(CCN(c3cncc(-c4c(C)ccc5cnn(C)c45)c3C#N)CC2)C1` [Compound I-265, 3-(2-acryloyl-2,7-diazaspiro[3.5]nonan-7-yl)-5-(1,6-dimethyl-1H-indazol-7-yl)isonicotinonitrile], “+ (+ indicates binding activity greater than 0% and up to 50%)”. For the compound `C=CC(=O)N1CC2(CCN(c3nc(OCc4ccc(N5CCN(C)CC5)cn4)nc(-c4c(C)ccc5[nH]ncc45)c3C#N)C2)C1` [Compound I-181, 4-(2-acryloyl-2,6-diazaspiro[3.4]octan-6-yl)-6-(5-methyl-1H-indazol-4-yl)-2-((5-(4-methylpiperazin-1-yl)pyridin-2-yl)methoxy)pyrimidine-5-carbonitrile], the Binding % result was “++ (++ indicates binding activity from 50 to 85%)”. On to `C=CC(=O)N1CC2(CCN(c3cc(-c4c(C)ccc5cn[nH]c45)ncn3)C2)C1` [Compound I-226, 1-(6-(6-(6-methyl-1H-indazol-7-yl)pyrimidin-4-yl)-2,6-diazaspiro[3.4]octan-2-yl)prop-2-en-1-one], for which the Binding % result is “+ (+ indicates binding activity greater than 0% and up to 50%)”. To `C=CC(=O)N1CC2(CCN(c3nc(OCc4ncccn4)nc(-c4c(C)ccc5[nH]ncc45)c3C#N)C2)C1` [Compound I-154, 4-(2-acryloyl-2,6-diazaspiro[3.4]octan-6-yl)-6-(5-methyl-1H-indazol-4-yl)-2-(pyrimidin-2-ylmethoxy)pyrimidine-5-carbonitrile] belongs “++ (++ indicates binding activity from 50 to 85%)”; to `C=CC(=O)N1CC2(CCN(c3nc(OCCN4CCCC4=O)nc(-c4c(C)ccc5[nH]ncc45)c3C#N)C2)C1` [Compound I-20, 4-(2-acryloyl-2,6-diazaspiro[3.4]octan-6-yl)-6-(5-methyl-1H-indazol-4-yl)-2-(2-(2-oxopyrrolidin-1-yl)ethoxy)pyrimidine-5-carbonitrile], “++ (++ indicates binding activity from 50 to 85%)”; to `C=CC(=O)N1CC2(CCN(c3nc(C(=O)N4CCOCC4)nc(-c4c(C)ccc5[nH]ncc45)c3C#N)C2)C1` [Compound I-201, 4-(2-acryloyl-2,6-diazaspiro[3.4]octan-6-yl)-6-(5-methyl-1H-indazol-4-yl)-2-(morpholine-4-carbonyl)pyrimidine-5-carbonitrile], “+ (+ indicates binding activity greater than 0% and up to 50%)”.
